Patent publication US9708259B2 (Hoffmann-La Roche Inc., priority 2013, dated 2017)
Changes are numbered by the printed parent chain. Like-named read-outs stand apart in the source and are kept apart here.

Columns and labels:
human M1 = biological target: T1, human M1 (Homo sapiens, UniProt P11229); assay: M1 PAM assay (FLIPR intracellular calcium), human M1; assay type: cell-based
T1 construct: expressed in transfected cells; host or cells: CHO cells
T1 sequence (P11229 1-460): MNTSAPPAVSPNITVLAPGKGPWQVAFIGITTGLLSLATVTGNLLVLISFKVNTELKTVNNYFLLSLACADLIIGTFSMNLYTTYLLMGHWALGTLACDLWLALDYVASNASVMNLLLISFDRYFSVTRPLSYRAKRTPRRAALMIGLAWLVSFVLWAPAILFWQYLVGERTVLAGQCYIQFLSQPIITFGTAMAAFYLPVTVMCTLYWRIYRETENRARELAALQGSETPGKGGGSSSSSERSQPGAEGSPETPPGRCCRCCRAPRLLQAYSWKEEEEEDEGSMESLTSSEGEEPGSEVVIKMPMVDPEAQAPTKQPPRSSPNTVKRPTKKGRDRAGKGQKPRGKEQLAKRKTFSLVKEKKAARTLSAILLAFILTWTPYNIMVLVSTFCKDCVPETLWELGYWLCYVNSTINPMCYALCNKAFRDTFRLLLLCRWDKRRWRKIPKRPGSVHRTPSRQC
Experimental: The assay study the effect of several concentrations of test compounds on basal or acetylcholine-stimulated Ca^2+ levels using FLIPR.
CHO human M1 are plated the day before the experiments at 2×10^5 cells/ml in PDL BioCoat 96 well black/clear plate (Becton 35 4640). The cells are grown at 37° C. and 5% CO2 in the following medium: F12 Nut Mix (Gibco 21765), 10% FCS heat inactivated (GIBCO 16000-044), 1% Pen Strep (Gibco,15140) and 200 μg/ml Geneticin (Gibco 11811). On the day of the experiment, the medium was removed and replaced by […] of dye loading buffer containing Hanks Balanced Salt solution (HBSS, 14065-049, Gibco) with 20 mM HEPES (Gibco 15630-056), 2 mM Probenicid (Sigma P8761), […] ester (Molecular Probes F-14202), 10% Pluronic acid Molecular Probes P-3000) pH=7.4 and incubated at 37° C. After 60 minutes extracellular dye was removed and the cells were washed five times with FLIPR buffer containing HBSS (Gibco 14065-049) with 20 mM HEPES (Gibco, 15630-056), 2 mM Probenicid (Sigma P8761) pre-warmed at 37° C. using and Ebml cell washer leaving […] of FLIPR buffer in each well. The cell plate and the diluted compounds (1% DMSO final concentration) are placed on the platform of the FLIPR and the door closed. A signal test to check background fluorescence and basal fluorescence signal is performed. Laser intensity is adjusted if necessary. Two minutes preincubation with the diluted test compounds is provide to determine any agonist activity on the M1 receptor by comparison to 30 nM Acetylcholine control. In order to determine any modulator activity the diluted compounds were added to cells and after two minutes preincubation, the EC20 of acetylcholine is added followed by another two minutes preincubation before the measurement of intracellular Ca^2+ with a FLIPR (Molecular Devices).

ratM1 = biological target: T2, ratM1 (Rattus norvegicus, UniProt P08482); assay: M1 PAM assay (FLIPR intracellular calcium), rat M1; assay type: cell-based
T2 construct: expressed in transfected cells; host or cells: CHO cells (stated generally for the assay, not specifically for rat M1)
T2 sequence (P08482 1-460): T1 sequence (P11229 1-460) with A5V, T254S, P309S, R320K, A337G, I413V

[1] = CHO human M1 cells, FLIPR Ca2+, with EC20 of acetylcholine, first value of the cell, read-out: hM1 EC50
[2] = rat M1, FLIPR Ca2+, second value of the cell, read-out: ratM1 EC50

O=C(N[C@H]1CCCC[C@@H]1O)c1cn(Cc2ccn3ccnc3c2)c2cccc(F)c12 [Example 144, 4-fluoro-N-((1S,2S)-2-hydroxycyclohexyl)-1-(imidazo[1,2-a]pyridin-7-ylmethyl)-1H-indole-3-carboxamide]
EC50 (human M1): 70 nM
EC50 (ratM1): 172 nM

Cn1cc(-c2ccc(Cn3cc(C(=O)N[C@H]4CCCC[C@@H]4O)c4c(F)ccc(C5CC5)c43)cc2)cn1 [Example 105, 7-cyclopropyl-4-fluoro-N-((1S,2S)-2-hydroxycyclohexyl)-1-(4-(1-methyl-1H-pyrazol-4-yl)benzyl)-1H-indole-3-carboxamide]
EC50 (human M1; [1]): 288 nM
EC50 (ratM1; [2]): 627 nM

CNC(=O)c1ccc(Cn2cc(C(=O)NC3CCC3)c3c(F)cccc32)cc1 [Example 112, N-cyclobutyl-4-fluoro-1-[[4-(methylcarbamoyl)phenyl]methyl]indole-3-carboxamide]
EC50 (human M1; [1]): 72 nM
EC50 (ratM1; [2]): 168 nM

Cn1cc(-c2ccc(Cn3cc(C(=O)NCC4(O)CC4)c4c(F)cccc43)c(F)c2)cn1 [Example 97, 4-fluoro-1-(2-fluoro-4-(1-methyl-1H-pyrazol-4-yl)benzyl)-N-((1-hydroxycyclopropyl)methyl)-1H-indole-3-carboxamide]
EC50 (human M1; [1]): 465 nM
EC50 (ratM1; [2]): 1890 nM

CNC(=O)c1ccc(Cn2cc(C(=O)NC3CCCCC3F)c3c(F)cccc32)cc1 (centres unmarked) [Example 121, 4-fluoro-N-(2-fluorocyclohexyl)-1-[[4-(methylcarbamoyl)phenyl]methyl]indole-3-carboxamide]
EC50 (human M1; [1]): 6 nM
EC50 (ratM1; [2]): 17 nM

Cn1cc(-c2ccc(Cn3cc(C(=O)N[C@H]4CCOC[C@@H]4O)c4c(F)cccc43)c(F)c2)cn1 (single isomer, unassigned) [Example 71, 4-Fluoro-1-(2-fluoro-4-(1-methyl-1H-pyrazol-4-yl)benzyl)-N-((3R,4S) or (3S,4R)-3-hydroxytetrahydro-2H-pyran-4-yl)-1H-indole-3-carboxamide]
EC50 (human M1; [1]): 5.92 nM
EC50 (ratM1; [2]): 12 nM

Cn1cc(-c2ccc(Cn3cc(C(=O)NC4CCOCC4)c4c(F)cccc43)cn2)cn1 [Example 68, 4-fluoro-1-((6-(1-methyl-1H-pyrazol-4-yl)yridine-3-yl)methyl)-N-(tetrahydro-2H-pyran-4-yl)-1H-indole-3-carboxamide]
EC50 (human M1; [1]): 267 nM
EC50 (ratM1; [2]): 182 nM

Cn1cc(-c2ccc(Cn3cc(C(=O)N[C@H]4CCOC[C@@H]4O)c4c(F)c(F)c(F)c(F)c43)cc2)cn1 (single isomer, unassigned) [Example 63, 4,5,6,7-Tetrafluoro-N-((3R,4S) or (3S,4R)-3-hydroxytetrahydro-2H-pyran-4-yl)-1-(4-(1-methyl-1H-pyrazol-4-yl)benzyl)-1H-indole-3-carboxamide]
EC50 (human M1; [1]): 19.6 nM
EC50 (ratM1; [2]): 54.2 nM

O=C(N[C@H]1CCCC[C@@H]1O)c1cn(Cc2ccc3nccn3c2)c2cccc(F)c12 [Example 145, 4-fluoro-N-((1S,2S)-2-hydroxycyclohexyl)-1-(imidazo[1,2-a]pyridin-6-ylmethyl)-1H-indole-3-carboxamide]
EC50 (human M1): 17 nM
EC50 (ratM1): 36 nM

CNC(=O)c1ccc(Cn2cc(C(=O)NC3CCCC3)c3c(F)cccc32)cc1 [Example 113, N-cyclopentyl-4-fluoro-1-[[4-(methylcarbamoyl)phenyl]methyl]indole-3-carboxamide]
EC50 (human M1; [1]): 34 nM
EC50 (ratM1; [2]): 77 nM

Cn1cc(-c2ccc(Cn3cc(C(=O)NC[C@H]4CCCO4)c4c(F)cccc43)cc2)cn1 [Example 10, (R)-4-fluoro-1-(4-(1-methyl-1H-pyrazol-4-yl)benzyl)-N-((tetrahydrofuran-2-yl)methyl)-1H-indole-3-carboxamide]
EC50 (human M1; [1]): 256 nM
EC50 (ratM1; [2]): 398 nM

COc1ccc(Cn2cc(C(=O)N[C@H]3CCCC[C@@H]3O)c3c(F)cccc32)cc1 [Example 31, 4-fluoro-N-((1S,2S)-2-hydroxycyclohexyl)-1-(4-methoxybenzyl)-1H-indole-3-carboxamide]
EC50 (human M1): 90.6 nM
EC50 (ratM1): 160 nM

Cc1ccc(F)c2c(C(=O)N[C@H]3CCCC[C@@H]3O)cn(Cc3ccc(-c4cnn(C)c4)cc3)c12 [Example 46, 4-fluoro-N-((1S,2S)-2-hydroxycyclohexyl)-7-methyl-1-(4-(1-methyl-1H-pyrazol-4-yl)benzyl)-1H-indole-3-carboxamide]
EC50 (human M1; [1]): 10.3 nM
EC50 (ratM1; [2]): 22.2 nM

Cn1ncc2cc(Cn3cc(C(=O)NC4CCOCC4)c4c(F)cccc43)ccc21 [Example 66, 4-fluoro-1-((1-methyl-1H-indazol-5-yl)methyl)-N-(tetrahydro-2H-pyran-4-yl)-1H-indole-3-carboxamide]
EC50 (human M1): 216 nM
EC50 (ratM1): 412 nM

Cc1nc(-c2ccc(Cn3cc(C(=O)N[C@H]4CCOC[C@@H]4O)c4c(F)cccc43)cc2)no1 [Example 83, 4-fluoro-N-((3R,4S)-3-hydroxytetrahydro-2H-pyran-4-yl)-1-(4-(5-methyl-1,2,4-oxadiazol-3-yl)benzyl)-1H-indole-3-carboxamide]
EC50 (human M1; [1]): 184 nM
EC50 (ratM1; [2]): 160 nM

Cn1cc(-c2ccc(Cn3cc(C(=O)NC4CCOCC4)c4c(F)ccc(F)c43)c(F)c2)cn1 [Example 96, 4,7-difluoro-1-(2-fluoro-4-(1-methyl-1H-pyrazol-4-yl)benzyl)-N-(tetrahydro-2H-pyran-4-yl)-1H-indole-3-carboxamide]
EC50 (human M1; [1]): 28 nM
EC50 (ratM1; [2]): 73 nM

NC(=O)c1ccc(Cn2cc(C(=O)N[C@H]3CCOC[C@@H]3O)c3c(F)cccc32)cc1 (racemic) [Example 15, 1-(4-carbamoylbenzyl)-4-fluoro-N-((3RS,4SR)-3-hydroxytetrahydro-2H-pyran-4-yl)-1H-indole-3-carboxamide]
EC50 (human M1; [1]): 12.4 nM
EC50 (ratM1; [2]): 9.61 nM

N#Cc1ccc(Cn2cc(C(=O)N[C@H]3CCCC[C@@H]3O)c3c(F)cccc32)cc1 [Example 32, 1-(4-cyanobenzyl)-4-fluoro-N-((1S,2S)-2-hydroxycyclohexyl)-1H-indole-3-carboxamide]
EC50 (human M1): 105 nM
EC50 (ratM1): 223 nM

COc1ccc(Cn2cc(C(=O)N[C@H]3CCCC[C@@H]3O)c3c(F)cccc32)cc1F [Example 33, 4-fluoro-1-(3-fluoro-4-methoxybenzyl)-N-((1S,2S)-2-hydroxycyclohexyl)-1H-indole-3-carboxamide]
EC50 (human M1): 104 nM
EC50 (ratM1): 222 nM

CNC(=O)c1ccc(Cn2cc(C(=O)NC3CCOCC3)c3c(F)cccc32)cn1 [Example 147, 4-fluoro-1-((6-(methylcarbamoyl)pyridin-3-yl)methyl)-N-(tetrahydro-2H-pyran-4-yl)-1H-indole-3-carboxamide]
EC50 (human M1; [1]): 197 nM
EC50 (ratM1; [2]): 323 nM

CNC(=O)c1ccc(Cn2cc(CC(=O)N[C@H]3CCOC[C@@H]3O)c3c(F)cccc32)cc1 [Example 98, 4-((4-fluoro-3-(2-((3R,4S)-3-hydroxytetrahydro-2H-pyran-4-ylamino)-2-oxoethyl)-1H-indol-1-yl)methyl)-N-methylbenzamide]
EC50 (human M1; [1]): 32 nM
EC50 (ratM1; [2]): 134 nM

Cn1cc(-c2ccc(Cn3nc(C(=O)N[C@H]4CCOC[C@@H]4O)c4c(F)ccc(F)c43)c(F)c2)cn1 [Example 73, 4,7-difluoro-1-(2-fluoro-4-(1-methyl-1H-pyrazol-4-yl)benzyl)-N-((3R,4S)-3-hydroxytetrahydro-2H-pyran-4-yl)-1H-indazole-3-carboxamide]
EC50 (human M1; [1]): 65.8 nM
EC50 (ratM1; [2]): 94.3 nM
